# Patent US4751295A, “Cephalosporin derivatives” (Bristol-Myers Company, priority 1986, dated 1988)
# Structures can show the parent of a compound that is named as a salt. Where two headings read alike, the source gives them in different places.
# Assays:
# [1] = blood levels upon intramuscular administration to mice; format: in vivo; conditions: mouse, im, 20 mg/kg
# Experimental: Table 2, below, gives the Protective Dose50 (PD50) in mice for a number of the compounds of Formula I against selected microorganisms. Table 3 gives blood levels of various compounds of Formula I upon intramuscular administration of the test compounds to mice at a dosage of 20 mg/kg.
# [2] = system: Cephalothinresistant E. coli (3 strains) and Kl. pneumoniae (2 strains); assay: MIC, two-fold serial agar dilution, group (G-)-Ib; format: cell-based; conditions: 5 strains; for MIC: Escherichia coli, read-out: Geometric Mean of MIC, (G-)-Ib, Mueller-Hinton agar; for Geometric Mean of MIC, (G-)-Ib: Mueller-Hinton agar
# Experimental: (§1) In the primary evaluation of the compounds of this invention, the Minimum Inhibitory Concentrations (MIC's) of the compounds were determined by the two-fold serial agar dilution method in Mueller-Hinton agar against 32 strains of test organisms in six groups.
# (G-)Ib: Cephalothinresistant E. coli (3 strains) and Kl. pneumoniae (2
# [3] = system: Cephalothinsensitive E. coli (2 strains), Kl. pneumoniae (1 strain) and Pr. mirabilis (2 strains); assay: MIC, two-fold serial agar dilution, group (G-)-Ia; format: cell-based; conditions: 5 strains
# Experimental: as §1
# (G+)Ia: Cephalothinsensitive E. coli (2 strains), Kl. pneumoniae (1
# strain) and Pr. mirabilis (2 strains)
# [4] = system: Penicillinresistant S. aureus (5 strains); assay: MIC, two-fold serial agar dilution, group (G+)-Ib; format: cell-based; conditions: Mueller-Hinton agar, 5 strains; for MIC: Staphylococcus aureus, read-out: Geometric Mean of MIC, (G+)-Ib
# Experimental: as §1
# (G+)Ib: Penicillinresistant S. aureus (5 strains)
# [5] = system: Penicillinsensitive S. aureus (5 strains); assay: MIC, two-fold serial agar dilution, group (G+)-Ia; format: cell-based; conditions: for MIC: Staphylococcus aureus, read-out: Geometric Mean of MIC, (G+)-Ia
# Experimental: as §1
# (G+)Ia: Penicillinsensitive S. aureus (5 strains)
# [6] = system: M. morganii (1 strain), Ent. cloacae (2 strains) and Ser. marcescens (2 strains); assay: MIC, two-fold serial agar dilution, group (G-)-II; format: cell-based; conditions: Mueller-Hinton agar, 5 strains; for MIC: read-out: Geometric Mean of MIC, (G-)-II
# Experimental: as §1
# (G-)II: M. morganii (1 strain), Ent. cloacae (2 strains) and Ser.
# [7] = system: Ps. aeruginosa (7 strains); assay: MIC, two-fold serial agar dilution, group (G-)-III; format: cell-based; conditions: Mueller-Hinton agar; for MIC: Pseudomonas aeruginosa, read-out: Geometric Mean of MIC, (G-)-III
# Experimental: as §1
# (G-)III: Ps. aeruginosa (7 strains)
# [8] = Mueller-Hinton agar, read-out: Geometric Mean of MIC, (G-)-Ia
SMILES,MIC [2] [µg/mL],"MIC [3, 8] [µg/mL]",MIC [4] [µg/mL],"MIC ([5]; Mueller-Hinton agar, 5 strains) [µg/mL]",MIC [6] [µg/mL],MIC [7] [µg/mL],further results
"NC(=O)c1cc[n+](C/C=C/C2=C(C(=O)[O-])N3C(=O)C(NC(=O)C(=NOC4CCCC4)c4nsc(N)n4)C3SC2)cc1 (stereo not drawn) [Compound I-5H, 7-[2-(5-Amino-1,2,4-thiadiazol-3-yl)-2-cyclopentyloxyiminoacetamido]-3-[3-(4-carbamoylpyridinio)-1-propenyl]-3-cephem-4-carboxylate]",0.46,0.2,0.4,0.13,2.1,4.2,AUC [1]: 18000 ng·h/mL; Cmax [1]: 22000 ng/mL; half-life [1]: 32 min
"CON=C(C(=O)NC1C(=O)N2C(C(=O)[O-])=C(C=CC[N+](C)(C)C)CS[C@H]12)c1nsc(N)n1 (stereo partly drawn) [I-1D E/Z = 1/1, 7-[2-(5-Amino-1,2,4-thiadiazol-3-yl)-2-methoxyiminoacetamido]-3-(3-trimethylammonio-1-propen-1-yl)-3-cephem-4-carboxylate]",–,0.1,–,–,0.46,2.4,"Geometric Mean of MIC, (G-)-Ib [2]: 0.26 µg/mL; Geometric Mean of MIC, (G+)-Ib [4]: 1.4 µg/mL; Geometric Mean of MIC, (G+)-Ia ([5]; Mueller-Hinton agar, 5 strains): 0.61 µg/mL"
"CON=C(C(=O)NC1C(=O)N2C(C(=O)[O-])=C(C=CC[N+]3(C)CCCC3)CSC12)c1nsc(N)n1 (stereo not drawn) [I-1A E/Z = 7/1, 7-[2-(5-Amino-1,2,4-thiadiazol-3-yl)-2-methoxyiminoacetamido]-3-[3-(1-methylpyrrolidinio)-1-propenyl]-3-cephem-4-carboxylate sulfate]",–,–,–,–,–,–,"Geometric Mean of MIC, (G-)-Ib ([2]; sulfate): 0.05 µg/mL; Geometric Mean of MIC, (G-)-Ia ([3]; Mueller-Hinton agar, sulfate): 0.029 µg/mL; Geometric Mean of MIC, (G+)-Ib ([4]; sulfate): 0.35 µg/mL; Geometric Mean of MIC, (G+)-Ia ([5]; Mueller-Hinton agar, 5 strains, sulfate): 0.13 µg/mL; Geometric Mean of MIC, (G-)-II ([6]; sulfate): 0.17 µg/mL; Geometric Mean of MIC, (G-)-III ([7]; sulfate): 1.4 µg/mL"
"CON=C(C(=O)NC1C(=O)N2C(C(=O)[O-])=C(C=CC[N+]3(C)CCCC3)CSC12)c1nsc(N)n1 (stereo not drawn) [I-1A E/Z = 1/1, 7-[2-(5-Amino-1,2,4-thiadiazol-3-yl)-2-methoxyiminoacetamido]-3-[3-(1-methylpyrrolidinio)-1-propen-1-yl]-3-cephem-4-carboxylate]",–,0.05,0.7,0.26,0.23,2.4,"Geometric Mean of MIC, (G-)-Ib [2]: 0.15 µg/mL"
"CCO/N=C(\C(=O)NC1C(=O)N2C(C(=O)[O-])=C(/C=C/C[n+]3ccc(C(=O)O)cc3)CSC12)c1nsc(N)n1 (stereo not drawn) [I-2N E, 7-[2-(5-Amino-1,2,4-thiadiazol-3-yl)-2-(Z)-ethoxyiminoacetamido]-3-[3-(4-carboxypyridinio)-1-propenyl]-3-cephem-4-carboxylate]",0.11,0.016,2.1,1.2,0.35,4.7,–
"CON=C(C(=O)NC1C(=O)N2C(C(=O)[O-])=C(C=CC[n+]3ccccc3)CSC12)c1nsc(N)n1 (stereo not drawn) [I-IB E/Z = 1/4, 7-[2-(5-Amino-1,2,4-thiadiazol-3-yl)-2-methoxyiminoacetamido]-3-[3-pyridinio-1-propen-1-yl]-3-cephem-4-carboxylate]",0.11,–,0.8,0.35,0.35,3.5,"MIC ([3]; read-out: Geometric Mean of MIC, (G-)-Ia, Mueller-Hinton agar): 0.05 µg/mL"
"CON=C(C(=O)NC1C(=O)N2C(C(=O)[O-])=C(/C=C/C[n+]3cccc(CC(=O)O)c3)CSC12)c1nsc(N)n1 (stereo not drawn) [Compound I-1P, 7-[2-(5-Amino-1,2,4-thiadiazol-3-yl)-2-methoxyiminoacetamido]-3-[3-(3-carboxymethylpyridinio)-1-propenyl]-3-cephem-4-carboxylate]",0.087,0.013,1.6,0.8,0.34,14,–
"CON=C(C(=O)NC1C(=O)N2C(C(=O)[O-])=C(/C=C/C[n+]3ccc(SCC(=O)O)cc3)CSC12)c1nsc(N)n1 (stereo not drawn) [Compound I-1Q, 7-[2-(5-Amino-1,2,4-thiadiazol-3-yl)-2-methoxyiminoacetamido]-3-[3-(4-carboxymethylthiopyridinio)-1-propenyl]-3-cephem-4-carboxylate]",0.044,0.0095,0.92,0.7,0.23,14,–
"CON=C(C(=O)NC1C(=O)N2C(C(=O)[O-])=C(/C=C/C[n+]3cccc(NC=O)c3)CSC12)c1nsc(N)n1 (stereo not drawn) [Compound I-1F, 7-[2-(5-Amino-1,2,4-thiadiazol-3-yl)-2-methoxyiminoacetamido]-3-[3-(3-formylaminopyridinio)-1-propen-1-yl]-3-cephem-4-carboxylate]",0.033,0.0094,0.4,0.15,0.099,1.2,–
"CON=C(C(=O)NC1C(=O)N2C(C(=O)[O-])=C(C=CC[N+](C)(C)C)CS[C@H]12)c1nsc(N)n1 (stereo partly drawn) [Compound I-1D, 7-[2-(5-Amino-1,2,4-thiadiazol-3-yl)-2-methoxyiminoacetamido]-3-(3-trimethylammonio-1-propen-1-yl)-3-cephem-4-carboxylate]",–,–,–,–,–,–,AUC [1]: 11000 ng·h/mL; Cmax [1]: 20000 ng/mL; half-life [1]: 19 min
"CON=C(C(=O)NC1C(=O)N2C(C(=O)[O-])=C(/C=C/C[n+]3ccc(CO)cc3)CSC12)c1nsc(N)n1 (stereo not drawn) [Compound I-1L, 7-[2-(5-Amino-1,2,4-thiadiazol-3-yl)-2-methoxyiminoacetamido]-3-[3-(4-hydroxymethylpyridinio)-1-propen-1-yl]-3-cephem-4-carboxylate]",0.088,0.029,0.61,0.26,0.15,2.6,–
"CON=C(C(=O)NC1C(=O)N2C(C(=O)[O-])=C(/C=C/C[n+]3cccc(N)c3)CSC12)c1nsc(N)n1 (stereo not drawn) [Compound I-1E, 7-[2-(5-Amino-1,2,4-thiadiazol-3-yl)-2-methoxyiminoacetamido]-3-[3-(3-aminopyridinio)-1-propen-1-yl]-3-cephem-4-carboxylate]",0.029,0.0094,0.4,–,0.1,1.4,MIC [5]: 0.2 µg/mL
"CON=C(C(=O)NC1C(=O)N2C(C(=O)[O-])=C(/C=C/C[n+]3ccccc3)CSC12)c1nsc(N)n1 (stereo not drawn) [I-1B E, 7-[2-(5-Amino-1,2,4-thiadiazol-3-yl)-2-methoxyiminoacetamido]-3-[3-pyridinio-1-propen-1-yl]-3-cephem-4-carboxylate]",0.044,0.016,0.4,–,0.11,1.6,MIC [5]: 0.2 µg/mL
"CCON=C(C(=O)NC1C(=O)N2C(C(=O)[O-])=C(/C=C/C[n+]3ccc(C(N)=O)cc3)CSC12)c1nsc(N)n1 (stereo not drawn) [Compound I-2H, 7-[2-(5-Amino-1,2,4-thiadiazol-3-yl)-2-ethoxyiminoacetamido]-3-[3-(4-carbamoylpyridinio)-1-propen-1-yl]-3-cephem-4-carboxylate]",0.057,0.014,0.4,–,0.15,1.4,MIC [5]: 0.2 µg/mL
"CCO/N=C(\C(=O)NC1C(=O)N2C(C(=O)[O-])=C(/C=C\C[n+]3ccc(C(=O)O)cc3)CSC12)c1nsc(N)n1 (stereo not drawn) [I-2N Z, 7-[2-(5-Amino-1,2,4-thiadiazol-3-yl)-2-(Z)-ethoxyiminoacetamido]-3-[3-(4-carboxypyridinio)-1-propenyl]-3-cephem-4-carboxylate]",0.15,0.044,3.1,1.4,0.69,10,–
"CON=C(C(=O)NC1C(=O)N2C(C(=O)[O-])=C(/C=C/C[n+]3cccc(CN)c3)CSC12)c1nsc(N)n1 (stereo not drawn) [Compound I-1I, 7-[2-(5-Amino-1,2,4-thiadiazol-3-yl)-2-methoxyiminoacetamido]-3-[3-(3-aminomethylpyridinio)-1-propen-1-yl]-3-cephem-4-carboxylate]",0.2,0.1,1.6,0.8,0.69,3.1,–
"CON=C(C(=O)NC1C(=O)N2C(C(=O)[O-])=C(C=CC[N+](C)(C)C)CS[C@H]12)c1nsc(N)n1 (stereo partly drawn) [I-1D E/Z = 10/1, 7-[2-(5-Amino-1,2,4-thiadiazol-3-yl)-2-methoxyiminoacetamido]-3-[3-trimethylammonio-1-propenyl]-3-cephem-4-carboxylate]",–,–,–,–,–,–,"Geometric Mean of MIC, (G-)-Ib [2]: 0.076 µg/mL; Geometric Mean of MIC, (G-)-Ia ([3]; Mueller-Hinton agar): 0.05 µg/mL; Geometric Mean of MIC, (G+)-Ib [4]: 0.53 µg/mL; Geometric Mean of MIC, (G+)-Ia ([5]; Mueller-Hinton agar, 5 strains): 0.30 µg/mL; Geometric Mean of MIC, (G-)-II [6]: 0.26 µg/mL; Geometric Mean of MIC, (G-)-III [7]: 1.3 µg/mL"
